# Patent publication US20210000890A1, “COMPOSITIONS AND METHODS FOR DENTAL CARE” (The State of Israel, Ministry of Agriculture & Rural …, priority 2019, published 2021)
# Assays:
# S. mutans biofilm = assay: Mono and dual-species biofilm formation, biofilm biomass by Crystal Violet staining; type: cell-based, Streptococcus mutans UA159; details: S. mutans cultured as monospecies in TY with the sugar alcohol, 24 h
# Experimental: For B. subtilis mono-species biofilm, a starter culture was diluted 1:100 (to obtain final O.D (600 nm)=0.07)) into TY or TY supplemented with either 2% sucrose or sorbitol or mannitol at various concentrations (10, 25,50,100 or 125 mM) in 96-well plate (Nunc, Roskilde, Denmark). The plate was incubated at 37° C. in 95% air/5% CO2 for 24 h.
# For S. mutans mono-species biofilm, overnight cultured S. mutans (O.D (600 nm)=1)) were diluted 1:10 into TY or TY supplemented with 2% sucrose (served as controls) or TY supplemented with different concentration of sorbitol or mannitol (10, 25,50,100 or 125 mM) into 96-well plate (Nunc). The plate was incubated at 37° C. in 95% air/5% CO2 for 24 h. For dual-species biofilm, cells of B. subtilis and S. mutans were grown into 96-well plate as follows: to fresh TY or TY supplemented with 2% sucrose or different concentration of sorbitol or mannitol (10, 25, 50, 100 or 125 mM) were introduced overnight cultured S. mutans (diluted by a ratio 1:10, approximately 2.5×10^7 CFU) and B. subtilis (diluted by a ratio 1:100, approximately 2.5×10^5 CFU). […]
# The generated submerged biofilms were washed carefully twice with saline solution. […] The extract was placed in a new 96-well plate and O.D. at 595 nm was measured using a plate reader instrument (infinite PRO2000, NEOTEC Scientific Instrumentation Ltd. Camspec, Cambridge, United Kingdom)^31,32.
# S. mutans = assay: Growth curve analysis (O.D. 595 nm); type: cell-based, Streptococcus mutans UA159; details: for growth of S. mutans: M9 minimal medium, 50 mM as sole carbon source, 16 h; for lag phase of S. mutans: TY medium supplemented with the sugar alcohol, different concentrations
# Experimental: For growth curve analysis, B. subtilis or S. mutans cultures grown as described above, were diluted (1:100 or 1:10 respectively) in TY or TY supplemented with 2% sucrose or different concentration of sorbitol or mannitol. When needed, the bacteria were diluted in M9 medium with 0.2% glucose or 50 mM sorbitol/mannitol. The cultures were then incubated at 37° C. overnight with slight shaking. The growth was recorded every hour using optical density measurement at 595 nm (infinite […]).
# [1] = test system: gutB (sorbitol dehydrogenase); assay: Relative gene expression by real-time RT-PCR; type: cell-based, B. subtilis; details: TY with 50 mM sugar alcohol vs TY alone (=1)
# Experimental: (§1) The cultures of either B. subtilis or S. mutans grown as described above, were diluted (1:100 or 1:10 respectively) in TY or TY supplemented with 50 mM sorbitol or mannitol. Next, B. subtilis were grown 37° C. at 150 rpm while S. mutans at 37° C. in 95% air/5% CO2. Samples for each treatment were taken after 3, 6, 12, 18 and 24 hours. One mL of RNA protect (Qiagen, Hilden, Germany) was added to each sample and incubated at RT for 5 min. After, the cells were centrifuged at 4,000×g for 10 min. RNA extraction preformed using GenUP total RNA kit (biotechrabbit, Hennigsdorf, Germany) according to the manufacture's protocol. Reverse transcription was performed using qScript cDNA synthesis kit (Quantabio, Beverly, Mass., USA).The synthesized cDNA was later used for the real-time PCR analysis of key enzymes in the metabolic pathway of S. mutans and B. subtilis (Sorbitol dehydrogenase (gutB) or Mannitol-1-phosphate 5-dehydrogenase (mltD)). The RT-PCR reaction was performed as described previously^33. Briefly, RT-PCR reaction mixture (20 μL) contained 1×SYBR Green (Invitrogen, California, USA), 1 μL cDNA sample and […] of the appropriate forward and reverse PCR primers. PCR conditions included an initial denaturation at 95° C. for 10 min, followed by a 40-cycles of amplification, consisting of denaturation at 95° C. for 15 s and annealing and extension at 60° C. for 1 min. Contamination by residual genomic DNA was determined from control reactions devoid of reverse transcriptase. The expression levels of all the tested genes by real-time PCR were normalized using the 16S rRNA gene of S. mutans as an internal standard ([…] et al., 2007) or sigA gene for B. subtilis.
# [2] = test system: mltD (mannitol-1-phosphate 5-dehydrogenase); assay: Relative gene expression by real-time RT-PCR; type: cell-based, B. subtilis; details: TY with 50 mM sugar alcohol vs TY alone (=1)
# Experimental: as §1
SMILES,S. mutans monospecies biofilm compared to the TY control (S. mutans biofilm),growth of S. mutans (S. mutans),lag phase of S. mutans (S. mutans),maximal induction rate of gutB ([1]; after 3 hours),induction of gutB ([1]; after 6 hours until 24 hours),maximal induction rate of mltD ([2]; after 3 hours),induction of mltD ([2]; after 6 hours until 24 hours)
OC[C@@H](O)[C@@H](O)[C@H](O)[C@@H](O)CO [sorbitol],enhanced biofilm,did not grow,approximately 3 hours,2 folds,1.6 fold,,
OC[C@@H](O)[C@@H](O)[C@H](O)[C@H](O)CO [mannitol],enhanced biofilm,did not grow,approximately 3 hours,,,1.6 folds,1.2 fold
